Reference: patent US11701345B2, “Car activator agents for cyclophosphamide-based treatments of cancer” (UNIVERSITY OF MARYLAND, BALTIMORE, priority 2017, dated 2023)
Entries after “also recorded” stand apart in the source; their conditions may differ.

Columns and labels:
SU-DHL-4 cells = assay: Hepatocyte/lymphoma co-culture with CHOP: cancer cell death, viability, caspase-3; assay type: cell-based, human
Experimental: HPH were cultured in collagen-coated 12-well plates and pretreated with vehicle control (0.1% DMSO) or hCAR activator (1 mmol/L) for 24 hours. The wells were then separated with […] polycarbonate membrane inserts (Sigma-Aldrich). A total of 0.5×10^6 SU-DHL-4 cells suspended in supplemented Williams' Medium E were transferred into the insert chamber with a final volume of 2 mL/well. In separate coculture experiments, HPH were replaced with either WT or CAR-KO HepaRG cells. The cocultures were exposed to designated concentrations of the chemotherapy drugs in CHOP in the presence or absence of hCAR activator for various time intervals, as indicated.
(§1) Homogenate proteins from treated HPH, H9c2 or HepaRG cells were resolved on NuPAGE Novex Bis-Tris 4% to 12% gels (Life Technologies) and electrophoretically transferred onto immobilon-P polyvinylidene difluoride membranes. Membranes were incubated with specific antibodies against human CAR (Perseus Proteomics), cleaved caspase-3 (Cell Signaling Technology), or g-H2AX (Millipore), diluted 1:1,000, 1:1,000, and 1:400, respectively. b-Actin was used to normalize protein loading. Following incubation with horseradish peroxidase goat antimouse or anti-rabbit IgG antibody, membranes were developed using SuperSignal West Pico Chemiluminescent Substrate (Thermo Scientific). Western blot signals were quantified by densitometry using ImageJ software from the National Institutes of Health.
HPHs and H9c2 rat cardiomyocytes were seeded at 7.5×10^4 cells per well in 96-well plates. HPH were cultured for 24 hours before treatment with hCAR activator (1 mmol/L) or vehicle control (0.1% DMSO), followed by treatment with the chemotherapy drugs included in CHOP at a range of concentrations. Culture medium containing CHOP drugs and metabolites was exchanged between the cell types at pre-determined time points. A typical 3-[4,5-dimethylthiazol-2-yl]-2,5 diphenyl tetrazolium bromide (MTT) assay was carried out as described previously (21). Cell viability was expressed as the percentage of vehicle control (0.1% DMSO). Cocultured cells were assembled and treated as described above. The viability of the SU-DHL-4 cells was determined at selected time points with a Cellometer Auto T4 (Nexcelom Biosciences) using trypan blue exclusion.

H9c2 cells = assay: CHOP cytotoxicity in side-toxic H9c2 cells; assay type: cell-based, rat; conditions: FIGS. 10A-10C, 11A-11F
Experimental: as §1
HPHs and H9c2 rat cardiomyocytes were seeded at 7.5×10^4 cells per well in 96-well plates. […] Culture medium containing CHOP drugs and metabolites was exchanged between the cell types at pre-determined time points. […] Cell viability was expressed as the percentage of vehicle control (0.1% DMSO). […] The viability of the SU-DHL-4 cells was determined at selected time points with a Cellometer Auto T4 (Nexcelom Biosciences) using trypan blue exclusion.

EL4-derived xenograft = EL4-derived xenograft in hCAR transgenic mice treated with CHOP; assay type: in vivo, mouse; conditions: hCAR-TG mice, compared with vehicle, CITCO and CHOP controls; FIGS. 13-14
Experimental: The effects of the novel hCAR activator e.g. CITCO on the CHOP based anticancer therapy has been examined in EL4-derived xenograft hCAR transgenic mouse model (FIG. 12). The tumor volume reduction was measured to determine the effects of hCAR activator on the CHOP treatment upon xenograft tumor model in mouse.

In the case of Clc1ccc(-c2nc3sccn3c2/C=N/OCc2ccc(Cl)c(Cl)c2)cc1 [CITCO, (E)-6-(4-chlorophenyl)imidazo[2,1-b]thiazole-5-carbaldehyde O-(3,4-dichlorobenzyl) oxime], the “effect on CHOP anticancer activity (cancer cell death)” value (SU-DHL-4 cells; hepatocyte/lymphoma co-culture, added to CHOP, FIGS. 10B-C) is reported as “enhances CHOP-mediated cytoxicity; also recorded: potentiates the beneficial effects of CHOP in causing cancer cell death”, the “Caspase-3 expression on addition to CHOP” value (SU-DHL-4 cells; lymphoma cells, FIGS. 11A-11F) is reported as “induction of apoptosis protein caspase-3; also recorded: dose dependent response of Caspase-3 expression” and the “effect on CHOP-mediated cytotoxicity in H9c2 cells” value (H9c2 cells) is reported as “not H9c2 cells”. For the same molecule, the “effect on therapeutic effects of CHOP (tumor volume, tumor mass)” value (EL4-derived xenograft) was “potentiate the therapeutic effects of the CHOP regimen”.
